In US9629362B1, “Methods for killing insects using methyl benzoate” (The United States of America, as represented by the …, priority 2016, dated 2017):
Entries after “also recorded” stand apart in the source; their conditions may differ. Read-outs that look alike come from different tables or passages of the source. Marks after values point to notes of the source that are not given here.

How the values were obtained:
H. halys nymphs = assay: Toxicity of MB against H. halys nymphs (treated filter paper in glass vial); type: in vivo, Halyomorpha halys; conditions: mortality after 24 hr
Description: Toxicity of MB against H. halys nymphs: The bioassays were carried out in glass vials (20 mL). Filter paper was cut into round shaped pieces (2.4 cm diameter). 50 μL MB acetone solution with different concentrations was loaded onto the filter paper evenly, and the filter paper was dried for 1 min and then put into the bottom of the vial. A small piece of green bean was put on the filter paper in the vial as food source. Different stages of H. halys nymphs were introduced into the vial and capped with a cotton ball. For each stage, 30 nymphs were used for each amount of MB loading. For the nymphs of the first instar, 10 nymphs were put into 1 vial. For the nymphs of the second and third instar, 5 nymphs were put into 1 vial. For the nymphs of the fourth instar, 3 nymphs were put into 1 vial. For the nymphs of the fifth instar, 2 nymphs were put into 1 vial. The mortality was assessed after 24 hr.
(§1) Data analysis: Comparisons of different treatments were analyzed using one-way ANOVA followed by Ryan-Eibot-Gabriel-Welsch F test (SPSS 10.0 for Windows (George, D., and P. Mallery, SPSS for Windows step by step: A simple guide and reference, 4th edition, Allyn & Bacon, 2002)) for significance at α=0.05.

M. sexta eggs = type: in vivo
Description: (§2) Ovicidal toxicity of MB and commercial pesticides: The aqueous solutions of MB with designated concentrations and commercially available pesticides with different concentrations of active ingredient (AI) were separately stored in glass spray bottles. The eggs (10 for H. halys and M. sexta, 100 for P. xylostella) were laid on filter papers in Petri dishes. Different aqueous solutions were sprayed on the surfaces of different eggs three times (˜0.5 mL) to completely cover the treatment areas. Then Petri dishes were covered with lids and maintained in a fume hood for 10 days. The Petri dishes were then inspected for presence of nymph/larvae development or numbers of unhatched eggs.
as §1

H. halys eggs = type: in vivo
Description: as §2, §1

P. xylostella eggs = type: in vivo
Description: as §2, §1

D. suzukii = assay: Oviposition deterrent / adult toxicity of MB and other VOCs on pre-treated blueberries; type: in vivo, Drosophila suzukii; conditions: for Activity against adult D. suzukii: 2 days exposure to pre-treated blueberries; for Toxicity / mortality against adult D. suzukii: blueberries soaked 2 h, 48 h (2 days) exposure; for Adults emerged from pre-treated berries / Pupae developed from pre-treated berries compared with blank control: further 10 days incubation at room temperature
Description: Mortality assessed after 48 hrs exposure to pre-treated blueberries (60 berries/treatment, 1% solution soaking for 2 hr) as described below.
Numbers assessed after 10 days incubation at room temperature as described below.
Mortality assessed after 48 hrs exposure to pre-treated blueberries (60 berries/treatment, soaking for 2 hr) as described below.
Numbers assessed after 10 days incubation at room temperature.
(§3) Laboratory bioassay: Bioassays were conducted in USDA Beltsville laboratory at 25° C., 60% RH, under a 16L:8D photoperiod with ˜1700 lux light illuminance. A fume hood was maintained at same conditions with face velocity at 129 FPM. The plastic cups (32 oz, diameter 4.5 inches, deep 5 inches, or 16 oz, diameter 4.5 inches, deep 2.5 inches) were purchased from papermart.com (CA). The cover was cut into a 80 mm diameter hole and glued with an 85 mm diameter Nylon screen mesh (81×81 per inch) mesh size, BioQuip, CA). The polystyrene vials (height 95 mm, diameter 28.5 mm) and plugs were obtained from Fisher Scientific (Pittsburg, Pa.). The plastic cage (30×30×30 cm) was purchased from BugDorm (Rancho Dominguez, Calif.). Glass vial (20 mL), glass spray bottle (Amber glass with spray top, 30 mL), Petri dish (9 cm diameter), and Whatman filter paper (90 mm diameter) were obtained from VWR (Atlanta, Ga.). Deionized water (DI) containing 1% emulsifier (v/v), Tween 20 and Tween 80, at 1.1 ratio was used to make different VOCs water solutions and also used as blank control.
Evaluation of MB and other VOCs as oviposition deterrent against D. suzukii: To examine the oviposition deterrent property of MB and other essential oils against D. suzukii, 10 blueberries were separately dipped in 100 mL MB or other essential oil aqueous emulsions at 1% concentration for 2 h. Another 10 blueberries were dipped in 100 mL DI water for 2 h as control. The blueberries were separately placed on different Petri dishes and allowed to air dry for 2 h. After a Petri dish containing 10 treated blueberries was put into a plastic cup (32 oz), 10 mixed sex adults D. suzukii were subsequently introduced into each cup. Mortality of the D. suzukii was examined after 48 h. After removing all insects, the blueberries were maintained at room temperature for another 10 days. Present of adults were subsequently assessed and development of larvae and pupae was further inspected by dissection of the berries.

[1] = by ingestion and inhalation; cited from earlier work
Drosophila suzukii = assay: Impact of MB on D. suzukii control: pre-infested blueberries dipped in MB emulsion; type: in vivo; conditions: 1% MB, berries pre-infested 4 days, dipped 2 h, 10 days incubation at room temperature
Description: Assessment was conducted after 10 days incubation at room temperature.
as §3, with “Deionized water (DI) containing 1% emulsifier (v/v), Tween 20 and Tween 80, at 1.1 ratio was used to make different VOCs water solutions and also used as blank control.” left out
Impact of MB on D. suzukii control: To investigate the acute toxicity of MB against D. suzukii, 100 blueberries were placed in a plastic cage (30×30×30 cm) and infested by 100 mixed sex adult D. suzukii for 4 days. […] Present of adults were then subsequently assessed and development of larvae and pupae was further inspected by dissection of the berries. […]

SMILES: COC(=O)c1ccccc1 [MB, methyl benzoate]
- LC50 (95% CL) (H. halys nymphs; 1st instar nymphs): 1.03 (0.93-1.10) μL/via1
- LC50 (95% CL) (H. halys nymphs; 2nd instar nymphs): 1.01 (0.86-1.12) μL/via1
- LC50 (95% CL) (H. halys nymphs; 3rd instar nymphs): 1.23 (1.12-1.33) μL/via1
- LC50 (95% CL) (H. halys nymphs; 4th instar nymphs): 2.39 (2.19-2.60) μL/via1
- LC50 (95% CL) (H. halys nymphs; 5th instar nymphs): 1.77 (1.60-1.93) μL/via1
- Ovicidal toxicity compared with commercial pesticides, in words (M. sexta eggs; M. sexta eggs, MB 0.0637 mg/cm^2 vs bifenthrin & ζ-cypermethrin 0.0239 and essential oil product 0.3979 mg/cm^2): significantly better
- Hatchability (%) (mean ± SE) (M. sexta eggs; M. sexta eggs, MB 0.025%, AI dose 0.0016 mg/cm^2, 10 days exposure): 67 ± 8.8^c %
- Hatchability (%) (mean ± SE) (M. sexta eggs; M. sexta eggs, MB 0.05%, AI dose 0.0032 mg/cm^2, 10 days exposure): 63 ± 8.8^c %
- Hatchability (%) (mean ± SE) (M. sexta eggs; M. sexta eggs, MB 0.1%, AI dose 0.0064 mg/cm^2, 10 days exposure): 50 ± 17.3^c %
- Hatchability (%) (mean ± SE) (M. sexta eggs; M. sexta eggs, MB 0.25, AI dose 0.0159 mg/cm^2, 10 days exposure): 40 ± 15.3^c %
- Hatchability (%) (mean ± SE) (M. sexta eggs; M. sexta eggs, MB 0.5%, AI dose 0.0318 mg/cm^2, 10 days exposure): 20 ± 10.0^abc %
- Hatchability (%) (mean ± SE) (M. sexta eggs; M. sexta eggs, MB 1%, AI dose 0.0637 mg/cm^2, 10 days exposure): 3 ± 3.35^ab %
- Hatchability (%) (mean ± SE) (M. sexta eggs; M. sexta eggs, MB 2%, AI dose 0.1273 mg/cm^2, 10 days exposure): 0 ± 0.0^a %
- Hatchability (%) (mean ± SE) (M. sexta eggs; M. sexta eggs, MB 4%, AI dose 0.2546 mg/cm^2, 10 days exposure): 0 ± 0.0^a %
- LC50 (95% CL) (M. sexta eggs; M. sexta eggs, spray, 10 days): 0.015 mg/cm^2
- LC95 (95% CL) (M. sexta eggs; M. sexta eggs, spray, 10 days): 0.060 mg/cm^2
- Toxicity against M. sexta eggs in words (M. sexta eggs; MB at 0.0637 mg/cm^2 dose): potent toxic agent
- Dosage (active ingredient) needed to reach 100% egg mortality (H. halys eggs; H. halys eggs): 0.0637 mg/cm^2
- Hatchability (%) (mean ± SE) (H. halys eggs; H. halys eggs, MB 0.025%, AI dose 0.0016 mg/cm^2, 10 days exposure): 67 ± 8.8^d %
- Hatchability (%) (mean ± SE) (H. halys eggs; H. halys eggs, MB 0.05%, AI dose 0.0032 mg/cm^2, 10 days exposure): 63 ± 17.6^cd %
- Hatchability (%) (mean ± SE) (H. halys eggs; H. halys eggs, MB 0.1%, AI dose 0.0064 mg/cm^2, 10 days exposure): 60 ± 10.0^cd %
- Hatchability (%) (mean ± SE) (H. halys eggs; H. halys eggs, MB 0.25, AI dose 0.0159 mg/cm^2, 10 days exposure): 43 ± 6.7^abcd %
- Hatchability (%) (mean ± SE) (H. halys eggs; H. halys eggs, MB 1%, AI dose 0.0637 mg/cm^2, 10 days exposure): 0 ± 0.0^a %
- Hatchability (%) (mean ± SE) (H. halys eggs; H. halys eggs, MB 2%, AI dose 0.1273 mg/cm^2, 10 days exposure): 0 ± 0.0^a %
- Hatchability (%) (mean ± SE) (H. halys eggs; H. halys eggs, MB 4%, AI dose 0.2546 mg/cm^2, 10 days exposure): 0 ± 0.0^a %
- Ovicidal potency compared with commercial pesticides, in words (H. halys eggs; H. halys eggs, MB at 0.0318 mg/cm^2 vs deltamethrin 0.0019, ζ-cypermethrin 0.0223, carbaryl 0.0080, β-cyfluthrin 0.1592, sulfur/pyrethrin 0.6525, organic essential oil product 0.3979 mg/cm^2): as potent as
- LC95 (95% CL) (H. halys eggs; H. halys eggs, spray, 10 days): 0.048 mg/cm^2
- Hatchability (%) (mean ± SE) (H. halys eggs; in vivo): 17 ± 12.0^ab %
- LC50 (95% CL) (H. halys eggs; in vivo): 0.020 mg/cm^2
- Times more toxic than organic commercial product (2-phenethyl propionate, clover oil, rosemary oil, thyme oil) (H. halys eggs; in vivo): 12 times
- Times more toxic than sulfur & pyrethrin mixture (H. halys eggs; in vivo): 20 times
- Times more toxic than the conventional pyrethroid (β-cyfluthrin) (H. halys eggs; in vivo): 5 times
- Dose needed to reach 100% egg mortality (P. xylostella eggs; P. xylostella eggs): 0.0064 mg/cm^2
- Hatchability (%) (mean ± SE) (P. xylostella eggs; P. xylostella eggs, MB 0.025%, AI dose 0.0016 mg/cm^2, 10 days exposure): 38 ± 5.5^c %
- Hatchability (%) (mean ± SE) (P. xylostella eggs; P. xylostella eggs, MB 0.05%, AI dose 0.0032 mg/cm^2, 10 days exposure): 13 ± 5.0^ab %
- Hatchability (%) (mean ± SE) (P. xylostella eggs; P. xylostella eggs, MB 0.1%, AI dose 0.0064 mg/cm^2, 10 days exposure): 0 ± 0.3^a %
- Hatchability (%) (mean ± SE) (P. xylostella eggs; P. xylostella eggs, MB 0.25, AI dose 0.0159 mg/cm^2, 10 days exposure): 1 ± 0.0^a %
- Hatchability (%) (mean ± SE) (P. xylostella eggs; P. xylostella eggs, MB 0.5%, AI dose 0.0318 mg/cm^2, 10 days exposure): 0 ± 0.0^a %
- Hatchability (%) (mean ± SE) (P. xylostella eggs; P. xylostella eggs, MB 1%, AI dose 0.0637 mg/cm^2, 10 days exposure): 0 ± 0.0^a %
- Ovicidal activity in words (P. xylostella eggs; P. xylostella eggs, MB at as low as 0.0032 mg/cm^2 dose): potent ovicidal activity
- Dose for 100% egg mortality of P. xylostella: times less than H. halys eggs needed (P. xylostella eggs; P. xylostella vs H. halys eggs): 10 times
- Dose for 100% egg mortality of P. xylostella: times less than M. sexta eggs needed (P. xylostella eggs; P. xylostella vs M. sexta eggs): 20 times
- LC50 (95% CL) (P. xylostella eggs; in vivo): 0.001 mg/cm^2
- LC95 (95% CL) (P. xylostella eggs; in vivo): 0.005 mg/cm^2
- Activity against adult D. suzukii (D. suzukii; 0.1% MB): no significant activity
- Activity against adult D. suzukii (D. suzukii; 0.5% MB): Little activity
- Toxicity / mortality against adult D. suzukii (D. suzukii; 1% solution): complete mortality; also recorded: potent activity
- Toxicity / mortality against adult D. suzukii (D. suzukii; 1% solution, listed as methyl benzoate): complete mortality
- Adults emerged from pre-treated berries (D. suzukii; 1% solution): no adults emerged
- Pupae developed from pre-treated berries compared with blank control (D. suzukii; 1% solution): significantly fewer pupae developed
- Activity against adult D. suzukii (D. suzukii; 5% MB): potent activity
- Adults emerged from pre-treated berries (D. suzukii; 5% MB): no adults emerged
- Pupae developed from pre-treated berries compared with blank control (D. suzukii; 5% MB): significantly fewer pupae developed
- Human toxicity [1]: low to moderate human toxicity
- Larvae/pupae development and adult emergence from pre-infested blueberries (Drosophila suzukii): no larvae and pupae developed or adult flies emerged
- Mortality of D. suzukii in pre-infested blueberries (Drosophila suzukii): complete mortality
